From ChEMBL document CHEMBL3608305, “Synergistic activation of quorum sensing in Vibrio harveyi” (Bioorg Med Chem Lett, 2015)
Calls of active or inactive are those of the source. The rule behind the calls is not given here.

Experiments:
[1] = target: Autoinducer 2-binding periplasmic protein LuxP (Vibrio harveyi) (UniProt P54300); test: Binding affinity to LuxP in Vibrio harveyi BB120 assessed as activation of quorum sensing system after 6 hrs by bioluminescence assay; details: Vibrio campbellii ATCC BAA-1116
Chain of Autoinducer 2-binding periplasmic protein LuxP (Vibrio harveyi) (P54300 whole entry): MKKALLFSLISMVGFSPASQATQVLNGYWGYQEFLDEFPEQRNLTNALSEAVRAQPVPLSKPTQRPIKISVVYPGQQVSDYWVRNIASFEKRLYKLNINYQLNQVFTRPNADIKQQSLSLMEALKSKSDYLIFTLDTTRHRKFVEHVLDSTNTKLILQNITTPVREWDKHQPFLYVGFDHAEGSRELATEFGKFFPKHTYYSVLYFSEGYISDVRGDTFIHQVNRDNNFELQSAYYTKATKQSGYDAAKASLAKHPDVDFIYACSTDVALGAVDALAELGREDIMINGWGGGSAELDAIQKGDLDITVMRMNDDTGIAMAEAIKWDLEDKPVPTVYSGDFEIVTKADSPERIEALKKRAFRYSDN

[2] = target: Autoinducer 2-binding periplasmic protein LuxP (Vibrio harveyi) (UniProt P54300); test: Binding affinity to LuxP in Vibrio harveyi MM32 assessed as activation of quorum sensing system at 1.5 to 100 uM after 5 hrs by bioluminescence assay in absence of exogenous synthetic DPD
[3] = target: Autoinducer 2-binding periplasmic protein LuxP (Vibrio harveyi) (UniProt P54300); test: (§1) Binding affinity to LuxP in Vibrio harveyi MM32 assessed as activation of quorum sensing system after 5 hrs by bioluminescence assay in presence of exogenous synthetic DPD
[4] = target: Autoinducer 2-binding periplasmic protein LuxP (Vibrio harveyi, UniProt P54300); test: as §1
Chain of Autoinducer 2-binding periplasmic protein LuxP (P54300 whole entry): as above

[5] = tested on: Vibrio harveyi; test: Toxicity in Vibrio harveyi MM32 at >5 uM; assay type: organism-based; details: in vivo

O=C(Cc1ccc2ccccc2c1)C(=O)[C@@H](O)CO
Activity [1]: Dose-dependent effect
Activity [2]: inactive
Activity [3]: Dose-dependent effect
EC50 [4]: 20 µM
Activity [5]: Toxic
